Consider seven compounds from US6870029B2, “Method of diagnosing and treating gliomas” (priority 1995, dated 2005).

Where “and” joins values, the source holds several entries; their conditions need not be identical. Equal entries are not always repeated. Where two headings read alike, the source gives them in different places.

One experiment concerns astrocytoma cells. The experiment is described as follows: Proliferation assay, 3H-thymidine incorporation. The experiment is classed as cell-based, human. To be noted: 24 hour incubation, vs untreated control. The procedure:
Proliferation was studied quantitatively by determining incorporation of ^3H-thymidine. In brief, cells were incubated for 24 hours in the continuous presence or absence of Ara-C (cytosine arabinoside, 10 μM), DIDS (200 μM), DNDS (200 μM), zinc (200 μM) or chlorotoxin (600 nM). Cells were incubated with 1 μCi/ml radiolabelled thymidine ([methyl-^3H]thymidine) for the final 4 hours (at 37° C.). Culture dishes were rinsed three times with ice-cold PBS and solublized with 0.3N NaOH for 30 minutes at 37° C. One aliquot ([…]) was used for cell protein determination using the bicinchroninic assay (BCA; Pierce Rockford, Ill.). The remaining cell suspension was mixed with Ultima Gold, and radioactivity was determined with a scintillation counter. The results were expressed as cpm/μg protein.
Given that these Cl^− currents were consistently present in all astrocytoma cells tested from both primary cultures of surgical specimens and from established human astrocytoma cell lines, whether Cl^− currents influence astrocytoma proliferation was examined. Although the effects of Cl^− channel blockade on cell proliferation have been reported in Schwann cells (40) and in B lymphocytes (7), the importance of Cl^− ion channels in glia cells has never been shown. Cells were cultured in the continuous presence of the anti-mitotic agent Ara-C (10 μM), DIDS (200 μM), DNDS (200 μM), Zinc (200 μM), or chlorotoxin (600 nM) and compared the rate of proliferation to untreated (control) sister cultures. Cells were treated at 2 days in culture (DIC) and proliferation was assayed 24 hours later, at 3 DIC, a period of high proliferation of untreated control cultures. As expected, incubation in the anti-mitotic agent Ara-C led to a 70% decrease in proliferation (SD=1.3309, N=17).

Experiment [1] deals with Glioma Chloride Channel (GCC). The experiment is classed as cell-based, human. The settings on record: for reversibility of current block: after bath application, short exposure times for DIDS and DNDS; for IC50: electrophysiologically determined, read-out: IC50 for inhibition of GCC currents. The source says: Current and voltage recordings were obtained using standard whole-cell patch-clamp techniques with an Axopatch-1D amplifier (Axon Instruments). Patch-pipettes were made from thin-walled borosilicate glass (WPI, TW150F-40) o.d. 1.5 mm, i.d. 1.2 mm and were filled with a solution containing (in mM): KCl 145, MgCl2 1, CaCl2 0.2, EGTA 10, Hepes 10, pH adjusted to 7.4 using Tris, unless otherwise noted. Pipettes were not fire-polished and typically had resistances between 2-5MΩ. Cells were continuously superperfused with saline solution, allowing for rapid (<30 seconds) exchange of bath volume. The standard bath solution contained, in mM: NaCl 122.6, KCl 5, MgCl2 1.2, CaCl2 1.0, Na2HPO4 2.0, NaH2PO4 0.4, NaHCO3 25.0, Na2SO4 1.2, Glucose 10.5 (bubbled with 5% CO2/95% O2). Drugs used to block ionic conductances were prepared freshly as stock solutions for each experiment and added to bath solution. Osmolality was measured with a vapor pressure osmometer (Wescor, Logan, Utah) and adjusted to 308-312 mOsms.
For whole-cell recordings, cell capacitance compensation and series resistance compensation were used to minimize voltage errors. The amplifier reading of capacitance was used as the value for the whole-cell membrane capacitance. Series resistances, monitored at regular intervals throughout each experiment, were usually 5-10 MΩ, and series resistance compensation was typically set to ˜80%. Entrance potential, read from the amplifier at the time of entering the whole-cell configuration, was used to determine each cell's resting potential. Voltage-clamp recordings were used to search for voltage-activated currents and stimulation profiles were altered to fully activate chloride channels (pulses from −105 to 195 mV). Where indicated, P/4 leak subtraction was obtained using hyperpolarizing voltage steps to obtain leak currents. Current reversal potential (voltage at which I=0) was determined from IV plots in which tail current amplitudes were plotted as a function of voltage. Effects of channel blockers were assessed by comparing current traces, entrance potential, and reversal potential prior to and following drug application. Snap photographs were taken of each recorded cell using a CCD camera and a video printer for cataloging of cell size, location, and morphology. Recordings were made at room temperature, typically 20-25° C.
Chlorotoxin is a protein having 36 amino acids that is derived from scorpion venom toxin that was originally described as a blocker of small conductance Cl^− channels in epithelial cells (8).
For the following studies, the electrophysiology format was as follows: standard current and voltage recordings were obtained using the whole-cell patch-clamp technique with an Axopatch-1D amplifier (Axon Instruments). Cells were continuously superperfused with bicarbonate-buffered saline at room temperature containing, in mM: NaCl 122.6, KCl 5, MgCl2 1.2, CaCl2 1.0, Na2HPO4 2.0, NaH2PO4 0.4, NaHCO3 25.0, Na2SO4 1.2, Glucose 10.5 (bubbled with 5% CO2). Electrodes (WPI, TW150F-40) o.d. 1.5 mm, i.d. 1.2 mm were filled with (in mM): KCl 145, MgCl2 1, CaCl2 0.2, EGTA 10, Hepes 10, pH adjusted to 7.4 using Tris, unless otherwise noted. Entrance potential, read from the amplifier at the time of entering the whole-cell configuration, was used to determine each cell's resting potential. Voltage-clamp recordings were used to search for voltage-activated currents and stimulation profiles were altered to fully activate chloride channels (pulses from −120 to 120 mV).

In another experiment the test system is glioma cells. The experiment can be described thus: Immunotoxin (saporin) killing targeted to the Ctx binding site. Type of experiment: cell-based, human. To be noted: pre-treatment of cultures with 6 μM. The procedure:
FIG. 19 show the glioma cells were exposed to 600 nM Ctx-GST followed by a mouse aGST and a goat anti-mouse antibody conjugated to saporin.
Using this approach, glioma cells were first treated with Ctx-GST, followed by a mouse anti-GST monoclonal antibody and lastly a goat anti-mouse antibody conjugated to saporin.

A further experiment has as its system normal human glial cells. The experiment can be described thus: 125[I]-chlorotoxin binding to non-tumor cells. The settings on record: normal human glial cells and mixed brain cell cultures.
The mark [2] stands for this setting: applied to the cytosolic face, 200 μM.

Description for normal human glial cells: Therefore, binding affinity was determined using (^125[I]-Ctx) radiolabeled with ^125[I]-sodium iodide by the chloramine-T method.

In the case of `O=[N+]([O-])c1ccc(C=Cc2ccc([N+](=O)[O-])cc2S(=O)(=O)O)c(S(=O)(=O)O)c1` [DNDS, 4,4′-Dinitrostilbene-2,2′-disulfonic acid], the “decrease in proliferation (3H-thymidine incorporation)” value (from here on “decrease in proliferation”) with astrocytoma cells (200 μM) stood at 38.2%. The “reversibility of current block” value in experiment [1] is “partly reversible”. This compound also came in with a block of currents in experiment [1] (setting [2]) of 62%.
As for glutathione-S-transferase [GST], the “reduction in Cl− currents” value in experiment [1] is reported as “ineffective”.
For the compound `Nc1ccn([C@@H]2O[C@H](CO)[C@@H](O)[C@@H]2O)c(=O)n1` [Ara-C, cytosine arabinoside], the “decrease in proliferation” value with astrocytoma cells (10 μM) was found to be 70%.
Turning to `[Zn]` [zinc], the “decrease in proliferation” value in the experiment with astrocytoma cells (200 μM) was found to be 72.6%.
For the compound `O=S(=O)(O)c1cc(N=C=S)ccc1C=Cc1ccc(N=C=S)cc1S(=O)(=O)O` [DIDS, 4,4′-Diisothiocyanostilbene-2,2′-disulfonic acid], the “decrease in proliferation” value in the experiment on astrocytoma cells (200 μM) is 16.4%. For the same compound, in experiment [1], the “reversibility of current block” value is given as “partly reversible”. Besides, in experiment [1] (setting [2]), the block of currents was 50%±10.9.
With chlorotoxin, the “increase in proliferation (3H-thymidine incorporation)” value in the experiment with astrocytoma cells (600 nM) was 37.8% and 37%. Further, the “prevention of immunotoxin cell death” value in the experiment with glioma cells was “largely prevented”. In the experiment with normal human glial cells, the specific binding result is reported as “no specific Ctx binding”. In experiment [1], the “reversibility of current block” value is reported as “partially reversible” and the half-maximal inhibitory concentration (IC50) (usually the concentration that gives 50% inhibition) stood at 950 nM. Besides, the “block of Cl− currents” value in experiment [1] (applied to the cytoplasmic face, 2.5 μM) came to 60.44%. For the same compound, the “decrease of outward currents” value in experiment [1] (bath application of 590 nM, STTG1 cells, voltage steps −105 to +195 mV) stood at 81%. Moreover, the IC50 in experiment [1] (listed as Ctx) was roughly 950 nM.
`[Cd]` [cadmium] came in with a block of currents in experiment [1] (25 mM as printed) of 42%. Moreover, the “decrease in peak currents” value in experiment [1] (bath application of 25 μM) is reported as 42%±18.5.
